Experimental data: patent publication US20260297060A1, “COMPOUNDS FOR THE DEGRADATION OF MUTANT BRAF” (C4 THERAPEUTICS, INC., priority 2023, published 2026)
Where two headings read alike, the source gives them in different places.

Target: T1, BRAF V600E (Homo sapiens, UniProt P15056+Q96SW2, V600E)
T1 construct: knock-in of the HiBiT tag to the endogenous BRAF V600E locus; host or cells: A375.10 (A375 clonal line, CRISPR HiBiT knock-in at the endogenous BRAF V600E locus)
Assay: BRAF V600E HiBiT Degradation Assay
Type: cell-based
In short: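 Endogenous HiBiT knock-in on BRAF V600E in A375 cells (clone A375.10); 11-point half-log series, top 10 μM, 2, 6 or 24 h at 37° C. Lytic HiBiT luminescence, background-subtracted, normalized to DMSO; 4-parameter fit gives DC50, Emax (residual protein) and IP (inflection point).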

[1] = A375.10 cells, BRAF V600E, 2 hours, inflection point, read-out: HiBiT-Degradation A375.10 BRAF 2 hours IP
[2] = A375.10 cells, BRAF V600E, 2 hours, read-out: HiBiT-Degradation A375.10 BRAF 2 hours DC50
[3] = A375.10 cells, BRAF V600E, 2 hours, residual protein remaining, read-out: HiBiT-Degradation A375.10 BRAF 2 hours Emax
[4] = A375.10 cells, BRAF V600E, 6 hours, inflection point, read-out: HiBiT-Degradation A375.10 BRAF 6 hours IP
[5] = A375.10 cells, BRAF V600E, 6 hours, read-out: HiBiT-Degradation A375.10 BRAF 6 hours DC50
[6] = A375.10 cells, BRAF V600E, 6 hours, residual protein remaining, read-out: HiBiT-Degradation A375.10 BRAF 6 hours Emax
[7] = A375.10 cells, HiBiT, BRAF V600E, 24 hours, read-out: HiBiT-Degradation A375.10 BRAF 24 hours DC50
[8] = A375.10 cells, HiBiT, BRAF V600E, 24 hours, read-out: HiBiT-Degradation A375.10 BRAF 24 hours Emax
[9] = A375.10 cells, HiBiT, BRAF V600E, 24 hours, read-out: HiBiT-Degradation A375.10 BRAF 24 hours IP
[10] = A375.10 cells, BRAF V600E, 6 hours, residual protein remaining
[11] = A375.10 cells, HiBiT, BRAF V600E, 24 hours
[12] = read-out: HiBiT-Degradation A375.10 BRAF 2 hours Emax, A375.10 cells, BRAF V600E, 2 hours, residual protein remaining

T1 sequence (P15056 whole entry V600E): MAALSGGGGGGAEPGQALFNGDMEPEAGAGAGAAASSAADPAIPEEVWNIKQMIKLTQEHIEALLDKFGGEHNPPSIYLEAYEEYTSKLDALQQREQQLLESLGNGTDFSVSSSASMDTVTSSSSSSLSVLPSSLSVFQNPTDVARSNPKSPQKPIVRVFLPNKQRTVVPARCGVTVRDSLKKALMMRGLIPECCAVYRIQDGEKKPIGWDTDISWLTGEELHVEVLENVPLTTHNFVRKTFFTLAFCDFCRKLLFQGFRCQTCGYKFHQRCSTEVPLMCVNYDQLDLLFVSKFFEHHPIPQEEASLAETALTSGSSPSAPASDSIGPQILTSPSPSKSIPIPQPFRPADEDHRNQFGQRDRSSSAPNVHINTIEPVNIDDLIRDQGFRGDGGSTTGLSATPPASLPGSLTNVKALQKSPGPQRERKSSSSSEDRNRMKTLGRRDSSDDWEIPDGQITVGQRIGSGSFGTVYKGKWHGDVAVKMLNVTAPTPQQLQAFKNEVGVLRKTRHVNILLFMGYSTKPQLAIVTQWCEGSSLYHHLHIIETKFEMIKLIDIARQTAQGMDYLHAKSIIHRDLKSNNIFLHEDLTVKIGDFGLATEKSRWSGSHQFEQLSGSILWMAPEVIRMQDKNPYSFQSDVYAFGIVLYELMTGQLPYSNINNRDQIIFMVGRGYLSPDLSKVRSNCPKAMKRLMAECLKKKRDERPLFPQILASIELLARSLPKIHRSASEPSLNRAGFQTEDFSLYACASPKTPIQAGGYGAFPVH
T1 sequence (Q96SW2 whole entry): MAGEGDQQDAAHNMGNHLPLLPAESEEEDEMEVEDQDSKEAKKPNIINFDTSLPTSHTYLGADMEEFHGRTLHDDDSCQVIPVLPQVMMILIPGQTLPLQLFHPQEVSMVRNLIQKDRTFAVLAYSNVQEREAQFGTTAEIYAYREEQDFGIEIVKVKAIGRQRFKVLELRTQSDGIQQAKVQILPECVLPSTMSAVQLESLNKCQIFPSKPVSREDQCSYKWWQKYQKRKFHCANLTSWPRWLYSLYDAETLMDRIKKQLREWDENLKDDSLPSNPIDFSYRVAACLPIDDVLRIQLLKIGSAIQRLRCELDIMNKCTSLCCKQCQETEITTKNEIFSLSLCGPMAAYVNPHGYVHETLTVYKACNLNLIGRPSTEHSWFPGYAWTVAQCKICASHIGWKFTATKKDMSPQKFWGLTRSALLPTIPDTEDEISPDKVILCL
T1 sequence (Q16531 whole entry partner): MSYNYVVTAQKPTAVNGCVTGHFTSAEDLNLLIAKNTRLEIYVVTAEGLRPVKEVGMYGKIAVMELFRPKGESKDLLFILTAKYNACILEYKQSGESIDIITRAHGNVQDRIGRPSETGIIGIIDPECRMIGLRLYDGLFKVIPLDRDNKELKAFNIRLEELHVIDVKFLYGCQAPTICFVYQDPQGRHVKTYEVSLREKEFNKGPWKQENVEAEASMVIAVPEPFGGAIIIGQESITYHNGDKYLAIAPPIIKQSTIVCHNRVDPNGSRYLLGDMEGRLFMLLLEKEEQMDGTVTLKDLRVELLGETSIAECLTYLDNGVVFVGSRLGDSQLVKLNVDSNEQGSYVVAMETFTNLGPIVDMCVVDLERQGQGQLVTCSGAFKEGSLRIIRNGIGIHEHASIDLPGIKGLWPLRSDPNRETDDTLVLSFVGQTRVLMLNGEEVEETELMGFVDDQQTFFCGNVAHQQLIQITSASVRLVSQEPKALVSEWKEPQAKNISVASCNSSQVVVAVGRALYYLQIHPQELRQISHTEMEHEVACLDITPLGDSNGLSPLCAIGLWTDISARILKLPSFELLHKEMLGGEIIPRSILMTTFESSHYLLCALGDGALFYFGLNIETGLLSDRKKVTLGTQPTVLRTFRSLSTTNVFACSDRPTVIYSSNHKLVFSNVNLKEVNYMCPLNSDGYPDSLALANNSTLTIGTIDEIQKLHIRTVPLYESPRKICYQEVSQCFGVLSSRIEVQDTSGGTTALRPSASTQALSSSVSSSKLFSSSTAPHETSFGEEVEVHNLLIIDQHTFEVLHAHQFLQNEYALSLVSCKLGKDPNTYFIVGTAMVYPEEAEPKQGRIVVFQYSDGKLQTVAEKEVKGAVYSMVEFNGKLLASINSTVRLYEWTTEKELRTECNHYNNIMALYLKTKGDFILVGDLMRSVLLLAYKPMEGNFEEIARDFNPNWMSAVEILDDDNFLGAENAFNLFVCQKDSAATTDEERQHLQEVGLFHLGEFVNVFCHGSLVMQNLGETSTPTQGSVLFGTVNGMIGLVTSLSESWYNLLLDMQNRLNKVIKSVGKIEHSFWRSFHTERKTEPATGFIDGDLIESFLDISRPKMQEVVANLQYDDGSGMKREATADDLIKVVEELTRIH

SMILES	DC50 [1] [nM]	DC50 [2] [nM]	Emax [3] [%]	DC50 [4] [nM]	DC50 [5] [nM]	Emax [6] [%]	DC50 [7] [nM]	Emax [8] [%]	DC50 [9] [nM]	HiBiT-Degradation A375.10 BRAF 6 hours Emax [10]	HiBiT-Degradation A375.10 BRAF 24 hours Emax [11]	Emax [12] [%]	HiBiT-Degradation A375.10 BRAF 2 hours Emax
CCN(C)S(=O)(=O)Nc1ccc(F)c(Oc2ccc3ncn([C@H]4COC5(CCN(C6CCC(c7cc8c(cc7F)c(N7CCC(=O)NC7=O)nn8C)CC6F)CC5)C4)c(=O)c3c2)c1C#N (single isomer, unassigned) [Compound 28]	< 1000	< 1000	–	< 1000	< 1000	< 50	< 1000	< 50	< 1000	–	–	< 50	–
CCN(C)S(=O)(=O)Nc1ccc(F)c(Oc2ccc3ncn([C@@H]4CCC5(CCN(C6CCC(c7cc8c(cc7F)c(N7CCC(=O)NC7=O)nn8C)CC6)CC5)C4)c(=O)c3c2)c1C#N (single isomer, unassigned) [Compound 31]	< 1000	> 10000	–	–	–	–	–	–	–	–	–	50 to 90	–
CCN(C)S(=O)(=O)Nc1ccc(F)c(Oc2ccc3ncn([C@H]4CCC5(CCN(C6CCC(c7cc8c(cc7F)c(N7CCC(=O)NC7=O)nn8C)CC6)CC5)C4)c(=O)c3c2)c1C#N (single isomer, unassigned) [Compound 33]	< 1000	< 1000	–	< 1000	< 1000	< 50	< 1000	< 50	< 1000	–	–	< 50	–
CCN(C)S(=O)(=O)Nc1ccc(F)c(Oc2ccc3ncn([C@H]4COC5(CCC(N6CCC(c7cc8c(cc7F)c(N7CCC(=O)NC7=O)nn8C)C(F)(F)C6)CC5)C4)c(=O)c3c2)c1C#N (single isomer, unassigned) [Compound 38]	< 1000	< 1000	–	< 1000	< 1000	< 50	< 1000	< 50	< 1000	–	–	< 50	–
CCN(C)S(=O)(=O)Nc1ccc(F)c(Oc2ccc3ncn([C@H]4COC5(CCC(N6CCC(c7cc8c(cc7F)c(N7CCC(=O)NC7=O)nn8C)C(F)(F)C6)CC5)C4)c(=O)c3c2)c1C#N (single isomer, unassigned) [Compound 39]	< 1000	< 1000	–	< 1000	< 1000	–	< 1000	–	< 1000	*** (<=50%)	*** (<=50%)	–	*** (<=50%)
CCN(C)S(=O)(=O)Nc1ccc(F)c(Oc2ccc3ncn([C@H]4COC5(CCN(C6CCC(c7cc8c(cc7F)c(N7CCC(=O)NC7=O)nn8C)CC6)CC5)C4)c(=O)c3c2F)c1C#N (single isomer, unassigned) [Compound 41]	< 1000	< 1000	–	< 1000	< 1000	< 50	< 1000	< 50	< 1000	–	–	< 50	–
CCN(C)S(=O)(=O)Nc1ccc(F)c(Oc2ccc3ncn([C@H]4COC5(CCN(C6CCC(c7cc8c(cc7F)c(N7CCC(=O)NC7=O)nn8C)CC6O)CC5)C4)c(=O)c3c2)c1C#N (single isomer, unassigned) [Compound 43]	< 1000	< 1000	50 to 90	< 1000	< 1000	< 50	< 1000	< 50	< 1000	–	–	–	–
CCN(C)S(=O)(=O)Nc1ccc(F)c(Oc2ccc3ncn([C@@H]4COC5(CCN(C6CCC(c7cc8c(cc7F)c(N7CCC(=O)NC7=O)nn8C)CC6)CC5)C4)c(=O)c3c2F)c1C#N (single isomer, unassigned) [Compound 46]	< 1000	< 1000	–	< 1000	< 1000	< 50	< 1000	< 50	< 1000	–	–	< 50	–
CCN(C)S(=O)(=O)Nc1ccc(F)c(Oc2ccc3ncc([C@H]4COC5(CCN(C6CCC(c7cc8c(cc7F)c(N7CCC(=O)NC7=O)nn8C)CC6)CC5)C4)nc3c2)c1C#N (single isomer, unassigned) [Compound 48]	< 1000	< 1000	–	< 1000	< 1000	< 50	< 1000	< 50	< 1000	–	–	< 50	–
CCN(C)S(=O)(=O)Nc1ccc(F)c(Oc2ccc3ncn([C@H]4COC5(CCN(C6CCC(c7ccc(NC8CCC(=O)NC8=O)cc7F)CC6)CC5)C4)c(=O)c3c2F)c1C#N (single isomer, unassigned) [Compound 50]	< 1000	< 1000	< 50	< 1000	< 1000	< 50	< 1000	< 50	< 1000	–	–	–	–
CCN(C)S(=O)(=O)Nc1ccc(F)c(Oc2ccc3ncn([C@@H]4COC5(CCN(C6CCC(c7ccc(NC8CCC(=O)NC8=O)cc7F)CC6)CC5)C4)c(=O)c3c2F)c1C#N (single isomer, unassigned) [Compound 52]	< 1000	< 1000	< 50	< 1000	< 1000	< 50	< 1000	< 50	< 1000	–	–	–	–

Other lines, results leading:

DC50 [1] [nM]	DC50 [2] [nM]	Emax [3] [%]	DC50 [4] [nM]	DC50 [5] [nM]	Emax [6] [%]	DC50 [7] [nM]	Emax [8] [%]	DC50 [9] [nM]	HiBiT-Degradation A375.10 BRAF 6 hours Emax [10]	HiBiT-Degradation A375.10 BRAF 24 hours Emax [11]	Emax [12] [%]	HiBiT-Degradation A375.10 BRAF 2 hours Emax	SMILES
< 1000	< 1000	< 50	< 1000	< 1000	< 50	< 1000	< 50	< 1000	–	–	–	–	CCN(C)S(=O)(=O)Nc1ccc(F)c(Oc2ccc3ncn([C@H]4COC5(CCN(C6CCC(c7ccc(N[C@H]8CCC(=O)NC8=O)cc7F)CC6)CC5)C4)c(=O)c3c2)c1C#N (single isomer, unassigned) [Compound 3]
< 1000	< 1000	< 50	< 1000	< 1000	< 50	< 1000	< 50	< 1000	–	–	–	–	CCN(C)S(=O)(=O)Nc1ccc(F)c(Oc2ccc3ncn([C@H]4COC5(CCN(C6CCC(c7ccc(N[C@@H]8CCC(=O)NC8=O)cc7F)CC6)CC5)C4)c(=O)c3c2)c1C#N (single isomer, unassigned) [Compound 4]
< 1000	< 1000	< 50	< 1000	< 1000	< 50	< 1000	< 50	< 1000	–	–	–	–	CCN(C)S(=O)(=O)Nc1ccc(F)c(Oc2ccc3ncn(C4CC5(CCN(C6CCC(c7ccc(NC8CCC(=O)NC8=O)cc7F)CC6)CC5)C4)c(=O)c3c2)c1C#N (single isomer, unassigned) [Compound 6, 6-[2-cyano-3-[[ethyl(methyl)sulfamoyl]amino]-6-fluoro-phenoxy]-3-[7-[4-[4-[(2,6-dioxo-3-piperidyl)amino]-2-fluoro-phenyl]cyclohexyl]-7-azaspiro[3.5]nonan-2-yl]-4-oxo-quinazoline]
< 1000	< 1000	< 50	< 1000	< 1000	–	< 1000	–	< 1000	*** (<=50%)	*** (<=50%)	–	–	CCN(C)S(=O)(=O)Nc1ccc(F)c(Oc2ccc3ncn(C4CC5(CCN(C6CCC(c7cc8c(cc7F)c(N7CCC(=O)NC7=O)nn8C)CC6)CC5)C4)c(=O)c3c2)c1C#N (single isomer, unassigned) [Compound 8, 6-[2-cyano-3-[[ethyl(methyl)sulfamoyl]amino]-6-fluoro-phenoxy]-3-[7-[4-[3-(2,4-dioxohexahydropyrimidin-1-yl)-5-fluoro-1-methyl-indazol-6-yl]cyclohexyl]-7-azaspiro[3.5]nonan-2-yl]-4-oxo-quinazoline]
< 1000	< 1000	< 50	< 1000	< 1000	< 50	< 1000	< 50	< 1000	–	–	–	–	CCN(C)S(=O)(=O)Nc1ccc(F)c(Oc2ccc3ncn([C@@H]4C[C@@H]5CN(C6CCC(c7ccc(NC8CCC(=O)NC8=O)cc7F)CC6)C[C@@H]5C4)c(=O)c3c2)c1C#N (single isomer, unassigned) [Compound 21]
< 1000	< 1000	< 50	< 1000	< 1000	< 50	< 1000	< 50	< 1000	–	–	–	–	CCN(C)S(=O)(=O)Nc1ccc(F)c(Oc2ccc3ncn([C@H]4CCC5(CCN(C6CCC(c7ccc(NC8CCC(=O)NC8=O)cc7F)CC6)CC5)C4)c(=O)c3c2)c1C#N (single isomer, unassigned) [Compound 24]
